From patent US20260284422A1, “BRAIN TUMOR TREATMENT OR PREVENTION OF RECURRENCE WITH LOW INTENSITY AND VARIABLE FREQUENCY MAGNETIC STIMULATION” (ACTIPULSE NEUROSCIENCE INC., priority 2023, published 2026)

Experiment: Evans Blue dye uptake into brain (BBB permeability) in mice given rTMS or sham
Assay type: in vivo, wild-type C57BL/6 mice
Source text: An in vivo mouse model was used to evaluate the use of rTMS to open the BBB. Ten wild-type C57BL/6 mice where anesthetized and received an intravenous (IV) injection of a 2% Evans Blue dye (in a vehicle of 0.9% NaCl). Evans Blue dye (also referred to as EBD or T-1824) is a non-toxic, azo-based injectable dye that presents visually with a dark blue/brown color. The dye has an affinity for serum albumin and is generally used to assess the permeability of the BBB in vivo. Most tissues will present darker, but neural tissue generally remains unstained. Mice injected with Evans Blue dye were then administered rTMS or a sham treatment and a histological analysis of the brain was performed to evaluate changes in permeability of the BBB. rTMS was administered according to Table 1.
The dye was administered as 100 μL 2% Evans blue (in 0.9% NaCl) via retro orbital injection. Mice were then administered rTMS or a sham (no magnetic field), e.g., as shown in the method overview depicted in FIGS. 2 and 3 for either 1 hr. or 30 min. Mice were euthanized, perfused with 10 mL PBS to expel blood from the organs, and analyzed for the presence of hemorrhage and lesion, e.g., as shown in the representative imaging in FIG. 3. Mice presented as lacking hemorrhage, lesion, or any signs of tissue damage.
Brains were then submerged in 20% sucrose for 2 hr. and embedded in optimal cutting temperature compound (OCT compound) and frozen. The brain was then sectioned at 16 μm thickness, rinsed with PBS, and mounted for scanning at 40× magnification. Section imaging was performed using a digital slide scanner.
An imaging software was used to evaluate the pixelate density and area of staining in brain sections for calculating a comparison of Evans Blue dye uptake into the brain tissue.

Mean area of brain section stained with Evans Blue, rTMS group (100 μL 2% Evans blue retro-orbital, then rTMS, 16 μm brain sections, n=4): 11.12 mm^2 | Mean area of brain section stained with Evans Blue, sham group (100 μL 2% Evans blue retro-orbital, then sham (no magnetic field), 16 μm brain sections, n=4): 5.665 mm^2 | Difference between means ± SEM of stained area (rTMS vs sham) (unpaired t-test, P 0.004, n=4 per group): 5.456 ± 1.209 mm^2
Structure (SMILES): Cc1cc(-c2ccc(/N=N/c3ccc4c(S(=O)(=O)O)cc(S(=O)(=O)O)c(N)c4c3O)c(C)c2)ccc1/N=N/c1ccc2c(S(=O)(=O)O)cc(S(=O)(=O)O)c(N)c2c1O [Evans Blue, Evans Blue dye]
